Measured values: publication PMC12892976, “Alkylation-based optimization of antifungal FPPS inhibitors yields a potent, broad-spectrum lipophilic zoledronate derivative” (mBio, 2025)
In brackets after ≈: the same amount, converted by molar mass.

Assays:
[1] = tested on: Rhizopus oryzae; test: MIC broth microdilution (CLSI); assay type: cell-based; conditions: Rhizopus oryzae 04-14-364-1703
Method: (§1) Antifungal susceptibility was determined by broth microdilution according to the CLSI guidelines described in M27-Ed4 ([16]).

[2] = tested on: Cryptococcus tetragattii; test: MIC broth microdilution (CLSI); assay type: cell-based; conditions: Cryptococcus tetragattii WM779
Method: as §1

[3] = tested on: Paraphyton cookei; test: checkerboard drug interaction (FICI, MICc);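 note: simplified diagonal checkerboard screen pairing an antifungal with an FPPS inhibitor, FICI computed under the Loewe additivity model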
Method: (§2) Drug interactions between antifungals and FPPS inhibitors were investigated using a simplified checkerboard diagonal screening method ([45]). […] FICIs were determined according to the Loewe additivity model ([17]).

[4] = tested on: Nannizzia gypsea; test: MIC broth microdilution (CLSI); assay type: cell-based; conditions: Nannizzia gypsea R-131
Method: as §1

[5] = tested on: Fusarium solani; test: MIC broth microdilution (CLSI); conditions: Fusarium solani 04-16-056-1862
Method: as §1

[6] = tested on: Candida auris; test: MIC broth microdilution (CLSI); assay type: cell-based; conditions: Candida auris CDC-0384
Method: as §1

[7] = tested on: Lomentospora prolificans; test: MIC broth microdilution (CLSI); assay type: cell-based; conditions: Lomentospora prolificans 80-16-101-2445
Method: as §1

[8] = tested on: Fusarium oxysporum; test: checkerboard drug interaction (FICI, MICc); assay type: cell-based;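 note: simplified diagonal checkerboard screen pairing antifungals with FPPS inhibitors, FICI calculated under the Loewe additivity model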
Method: as §2

[9] = tested on: Aspergillus terreus; test: MIC broth microdilution (CLSI); assay type: cell-based; conditions: Aspergillus terreus 75-16-089-2500
Method: as §1

[10] = tested on: Epidermophyton floccosum; test: checkerboard drug interaction (FICI, MICc);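 note: simplified diagonal checkerboard screen pairing antifungals with FPPS inhibitors, FICI calculated under the Loewe additivity model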
Method: as §2

[11] = tested on: Aspergillus frankstonensis; test: MIC broth microdilution (CLSI); assay type: cell-based; conditions: Aspergillus frankstonensis DTO 341-F3
Method: as §1

[12] = tested on: Cryptococcus bacillisporus; test: MIC broth microdilution (CLSI); assay type: cell-based; conditions: Cryptococcus bacillisporus NIH179
Method: as §1

[13] = tested on: Cryptococcus gattii; test: MIC broth microdilution (CLSI); assay type: cell-based; conditions: Cryptococcus gattii PNG27
Method: as §1

[14] = tested on: Trichophyton tonsurans; test: MIC broth microdilution (CLSI); conditions: Trichophyton tonsurans R-168
Method: as §1

[15] = tested on: Fusarium oxysporum; test: MIC broth microdilution (CLSI); assay type: cell-based; conditions: Fusarium oxysporum 07-200-3012
Method: as §1

[16] = tested on: Candida tropicalis; test: MIC broth microdilution (CLSI); assay type: cell-based; conditions: Candida tropicalis M230640
Method: as §1

[17] = tested on: Pichia kudriavzevii; test: checkerboard drug interaction (FICI, MICc); assay type: cell-based;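 note: antifungal plus FPPS inhibitor interactions tested in a simplified diagonal checkerboard screen, with FICI calculated under the Loewe additivity model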
Method: as §2

[18] = tested on: Aspergillus felis; test: checkerboard drug interaction (FICI, MICc); assay type: cell-based;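 note: simplified diagonal checkerboard screen pairing antifungals with FPPS inhibitors, FICI calculated under the Loewe additivity model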
Method: as §2

[19] = tested on: Aspergillus felis; test: MIC broth microdilution (CLSI); assay type: cell-based; conditions: Aspergillus felis IHE87256683D6
Method: as §1

[20] = tested on: Candida dubliniensis; test: MIC broth microdilution (CLSI); assay type: cell-based; conditions: Candida dubliniensis M230642
Method: as §1

[21] = tested on: Nannizzia nana; test: MIC broth microdilution (CLSI); assay type: cell-based; conditions: Nannizzia nana R-133
Method: as §1

[22] = tested on: Nannizzia nana; test: checkerboard drug interaction (FICI, MICc); assay type: cell-based;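 note: simplified diagonal checkerboard screen pairing antifungals with FPPS inhibitors, FICI calculated under the Loewe additivity model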
Method: as §2

[23] = tested on: Aspergillus lentulus; test: checkerboard drug interaction (FICI, MICc); assay type: cell-based;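 note: simplified diagonal checkerboard screen pairing antifungals with FPPS inhibitors, with the interaction index calculated under the Loewe additivity model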
Method: as §2

[24] = tested on: Cryptococcus deneoformans; test: checkerboard drug interaction (FICI, MICc); assay type: cell-based
Method: as §2

[25] = tested on: Trichophyton interdigitale; test: checkerboard drug interaction (FICI, MICc);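 note: simplified diagonal checkerboard screen pairing antifungals with FPPS inhibitors, FICI values calculated under the Loewe additivity model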
Method: as §2

[26] = tested on: Aspergillus niger; test: MIC broth microdilution (CLSI); assay type: cell-based; conditions: Aspergillus niger 111
Method: as §1

[27] = tested on: Epidermophyton floccosum; test: MIC broth microdilution (CLSI); assay type: cell-based; conditions: Epidermophyon floccosum R-113
Method: as §1

[28] = tested on: Rhizopus oryzae; test: checkerboard drug interaction (FICI, MICc); assay type: cell-based
Method: as §2

[29] = tested on: Candida dubliniensis; test: checkerboard drug interaction (FICI, MICc); assay type: cell-based
Method: as §2

[30] = tested on: Pichia kudriavzevii; test: MIC broth microdilution (CLSI); assay type: cell-based; conditions: Pichia kudriavzavii ATCC 6258
Method: Antifungal susceptibility was determined by broth microdilution according to the CLSI guidelines described in M27-Ed4 ([16]). […] MFC was determined by back-plating drug-treated cultures from MIC broths onto SDA plates. The MFC was defined as the lowest concentration from which no colonies could be cultured.

[31] = tested on: Aspergillus lentulus; test: MIC broth microdilution (CLSI); assay type: cell-based; conditions: Aspergillus lentulus DTO 341-G7
Method: as §1

[32] = tested on: Lomentospora prolificans; test: checkerboard drug interaction (FICI, MICc)
Method: as §2

[33] = tested on: Scedosporium apiospermum; test: MIC broth microdilution (CLSI); assay type: cell-based; conditions: Scedosporium apiospermum 04-16-022-2268
Method: as §1

[34] = tested on: Nannizzia gypsea; test: checkerboard drug interaction (FICI, MICc);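 note: simplified diagonal checkerboard screen pairing antifungals with FPPS inhibitors, FICI derived using the Loewe additivity model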
Method: as §2

[35] = tested on: Microsporum canis; test: MIC broth microdilution (CLSI); conditions: Microsporum canis R-232
Method: as §1

[36] = tested on: Aspergillus terreus; test: checkerboard drug interaction (FICI, MICc); assay type: cell-based;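 note: simplified diagonal checkerboard screen pairing antifungals with FPPS inhibitors, FICI derived by the Loewe additivity model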
Method: as §2

[37] = tested on: Cryptococcus bacillisporus; test: checkerboard drug interaction (FICI, MICc); assay type: cell-based;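 note: interaction of antifungals with FPPS inhibitors assessed by a simplified diagonal checkerboard screen, with FICI computed under the Loewe additivity model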
Method: as §2

C[C@@H]1[C@H](O)[C@@H](C)/C=C/C=C/C=C/C=C/C=C/C=C/C=C/[C@H](O[C@@H]2O[C@H](C)[C@@H](O)[C@H](N)[C@@H]2O)C[C@@H]2O[C@](O)(C[C@@H](O)C[C@@H](O)[C@H](O)CC[C@@H](O)C[C@@H](O)CC(=O)O[C@H]1C)C[C@H](O)[C@H]2C(=O)O [AMB, amphotericin B]
MIC / MEC [1]: 0.13 µg/mL (≈ 0.141 µM) | MIC / MEC [2]: 0.5 µg/mL (≈ 0.541 µM) | antifungal MICc ([3]; in combination with 10-ZOL): 1 | antifungal MICc ([3]; in combination with ZOL): 0.25 | MIC / MEC [4]: 0.5 µg/mL (≈ 0.541 µM) | MIC / MEC [5]: 0.5 µg/mL (≈ 0.541 µM) | MIC / MEC [6]: 2 µg/mL (≈ 2.16 µM) | MIC / MEC [7]: 16 µg/mL (≈ 17.3 µM) | antifungal MICc ([8]; in combination with 10-ZOL): 1 | antifungal MICc ([8]; in combination with ZOL): 0.5 | MIC / MEC [9]: 1 µg/mL (≈ 1.08 µM) | antifungal MICc ([10]; in combination with 10-ZOL): 0.5 | antifungal MICc ([10]; in combination with ZOL): 0.25 | MIC / MEC [11]: 2 µg/mL (≈ 2.16 µM) | MIC / MEC [12]: 0.25 µg/mL (≈ 0.271 µM) | MIC / MEC [13]: 0.25 µg/mL (≈ 0.271 µM) | MIC / MEC [14]: 0.13 µg/mL (≈ 0.141 µM) | MIC / MEC [15]: 1 µg/mL (≈ 1.08 µM) | MIC / MEC [16]: 1 µg/mL (≈ 1.08 µM) | antifungal MICc ([17]; in combination with 10-ZOL): 0.25 | antifungal MICc ([17]; in combination with ZOL): 0.25 | antifungal MICc ([18]; in combination with 10-ZOL): 2 | antifungal MICc ([18]; in combination with ZOL): 8 | MIC / MEC [19]: 4 µg/mL (≈ 4.33 µM) | MIC / MEC [20]: 0.25 µg/mL (≈ 0.271 µM) | MIC / MEC [21]: 0.5 µg/mL (≈ 0.541 µM) | antifungal MICc ([22]; in combination with 10-ZOL): 1 | antifungal MICc ([22]; in combination with ZOL): 0.25 | antifungal MICc ([23]; in combination with 10-ZOL): 1 | antifungal MICc ([23]; in combination with ZOL): 2 | antifungal MICc ([24]; in combination with 10-ZOL): 0.125 | antifungal MICc ([24]; in combination with ZOL): 0.125 | antifungal MICc ([25]; in combination with 10-ZOL): 0.25 | antifungal MICc ([25]; in combination with ZOL): 1 | MIC / MEC [26]: 0.13 µg/mL (≈ 0.141 µM) | MIC / MEC [27]: 0.5 µg/mL (≈ 0.541 µM) | antifungal MICc ([28]; in combination with 10-ZOL): 0.13 | antifungal MICc ([28]; in combination with ZOL): 0.13 | antifungal MICc ([29]; in combination with 10-ZOL): 0.25 | antifungal MICc ([29]; in combination with ZOL): 0.25 | MIC / MEC [30]: 0.5 µg/mL (≈ 0.541 µM) | MIC / MEC [31]: 4 µg/mL (≈ 4.33 µM) | antifungal MICc ([32]; in combination with 10-ZOL): 4 | antifungal MICc ([32]; in combination with ZOL): 4 | MIC / MEC [33]: 8 µg/mL (≈ 8.66 µM) | antifungal MICc ([34]; in combination with 10-ZOL): 0.5 | antifungal MICc ([34]; in combination with ZOL): 0.25 | MIC / MEC [35]: 1 µg/mL (≈ 1.08 µM) | antifungal MICc ([36]; in combination with 10-ZOL): 0.25 | antifungal MICc ([36]; in combination with ZOL): 0.5 | antifungal MICc ([37]; in combination with 10-ZOL): 0.125 | antifungal MICc ([37]; in combination with ZOL): 1
